# Experimental data: patent US20120316065A1, “SURFACTANT BLENDS FOR AUXIN ACTIVITY HERBICIDES” (AKZO NOBEL CHEMICALS INTERNATIONAL B.V., priority 2010, published 2012)
# Tested on: alfalfa (Medicago sativa)
# Test: Greenhouse herbicidal efficacy of 2,4-D amine tank-mixed with adjuvants, post-emergence spray
# Assay type: in vivo
# Conditions: 2,4-D DMA 0.125 lb/A, adjuvant 0.25% wt (0 for None), scale 0% no damage to 100% complete damage
# Method: The surfactant blends described in Table 1 were applied by the tank mix method together with 2,4-D amine salt (465 g/l). The application rate per ha was 0.1250 lb 2,4-D amine salt ai/A and 0.25% of surfactant blends according to the invention or 0.25% comparative adjuvant Activator 90 (alkylphenol ethoxylate, alcohol ethoxylate and tall oil fatty acid, (Loveland). The herbicidal effect was assessed in a greenhouse environment after 1, 2, 3, and 4 weeks. The test plant used was alfalfa (Medicago sativa).
# The plants were sown directly to the pot. When the active ingredient was applied, the plants were 20-30 cm in height. The test containers used were plastic pots containing potting mixture. The solutions were applied by the tank mix method by spray application post-emergence in an automated spray cabinet with a water application rate of 200 liters per hectare. Evaluation was carried out using a scale of from 0% to 100%. 0% means no damage, 100% means complete damage. The results of the assessment are compiled in tables 2 and which follow.
smiles,measurement,setting,value
"O=C(O)COc1ccc(Cl)cc1Cl [2,4-D DMA, 2-(2,4-dichlorophenoxy) acetic acid]",Alfalfa (1WAT) % control,1 week after treatment,10.0%
same,Alfalfa (2WAT) % control,2 weeks after treatment,20.0%
same,Alfalfa (3WAT) % control,3 weeks after treatment,20.0%
same,Alfalfa (4WAT) % control,4 weeks after treatment,37.5%
